According to patent US20050245606A1, “High-efficiency fullerene-based radical scavengers” (Nano-C, Inc., priority 2003, published 2005):

Assay: Scavenging of cigarette smoke radicals in decalin, read out by DHR 6G fluorescence
Type: biochemical
Procedure: Tests were conducted to study the effectiveness of methanofullerene derivatives against radicals present in cigarette smoke (predominantly peroxyl radical). The cigarette smoke was bubbled through a glass frit into a solvent (decalin) in which radical scavengers were dissolved. The smoke then exited this solvent and was passed through a second flask, in which a fluorescent probe that fluoresces upon oxidation by radicals was used (Dihydrorhodamine 6G (DHR 6G), purchased from Molecular Probes). The variation of fluorescent signal corresponds directly to the radical content of the cigarette smoke, and thus a measure of the reduction of radicals by the radical scavenger is measured. Signals were measured every 10 seconds.
Tests were conducted to study the sensitivity of the test apparatus in Example 1 to varying concentrations of Vitamin E as a radical scavenger to scavenge radicals present in cigarette smoke (predominantly peroxyl radical). The cigarette smoke was bubbled through a cylindrical, coarse glass frit into a solvent (decalin) in which radical scavengers were dissolved. The smoke then exited this solvent and was passed through a second flask, in which a fluorescent probe that fluoresces upon oxidation by radicals was used (Dihydrorhodamine 6G (DHR 6G), purchased from Molecular Probes). The variation of fluorescent signal corresponds directly to the radical content of the cigarette smoke, and thus a measure of the reduction of radicals by the radical scavenger is measured. Signals were measured every 10 seconds.

Molecule | change of fluorescent signal on doubling the scavenger concentration (150 μM versus 300 μM in decalin, FIG. 6B) | difference in fluorescence signal / radical scavenging efficiency versus Vitamin E (300 μM PCBM versus 300 μM Vitamin E) | reduction of radicals by the radical scavenger (fluorescent signal of DHR 6G) (scavenger dissolved in decalin, comparison with Vitamin E under identical conditions, FIG. 6A)
Vitamin E [reference compound] | very small deflection |  | 
COC(=O)CCCC1(c2ccccc2)C23C=Cc4cc5c6c7c4C21c1c2c4c(cc8ccc9cc(c6c6c9c8c4c6c17)C5)CC2=C3 (stereo not drawn) [PCBM, [6,6]-phenyl C61-butyric acid methyl ester] |  | very large difference in radical scavenging efficiency | scavenges significantly more of the radicals present in the cigarette smoke than Vitamin E
